{
  "source": "patent US20020155172A1",
  "about": "“Methods and compounds for decreasing cell toxicity or death” (priority 2000, published 2002)",
  "key": {"[1]": {"test_system": "non-transfected HeLa cells", "test": "Total cellular protein degradation", "type": "cell-based", "settings": "Congo red 100 μM, ZVAD 100 μM, MG132 10 μM; H3-tyrosine release, 0 to 180 minutes", "protocol": "FIG. 8C is a graph of the effect of effect of Congo red, ZVAD, or the proteosome inhibitor MG132 on total cellular protein degradation in non-transfected HeLa cells.\nTo rule out the possibility that Congo red may have an effect on protein degradation in general, we tested the effect of Congo red on proteosome degradation. Rates of total cellular protein degradation experiments, from cells seeded in 12 well dishes at 2×10^4, treated with Congo red (100 μM), ZVAD (100 μM), or the proteosome inhibitor MG132 (10 μM) and labeled with 5 μCi/ml of H^3-tyrosine for 1 hour. One hundred microliter culture medium aliquots were collected at 0, 30, 60, 90, 120, and 180 minute time points, and the levels of H^3-tyrosine were determined using an LS6000 scintillation counter (Beckman, Co)."}, "[2]": {"test_system": "R62 mice and wild-type mice", "test": "Body weight", "type": "in vivo", "text": "FIG. 10A is a graph showing the effect of Congo red or PBS (vehicle) on body weight in HD transgenic mice between 9 and 11 weeks of age (top graph) and between 9 and 13 weeks of age (bottom graph). Mice were infused intraperitoneally (IP) or by intracerebroventricular cannula (ICV) implanted into the predetermined coordinates on the left ventricle, or by both routes.\n(§1) In addition, the ability of Congo red to inhibit the formation as well as to disrupt preformed polyglutamine oligomers allowed us to examine the role of polyglutamine aggregates in neuronal dysfunction and degeneration characteristic of polyglutamine expansion diseases. In these studies, we used the animal model of Huntington's disease (R62), which expresses the truncated form of huntingtin with 139 CAG repeats Mangiarini et al. (supra). We took advantage of our finding that in addition to inhibiting polyglutamine oligomerization, Congo red also disrupts pre-formed oligomers, thus allowing assessment of the impact of Congo red on disease progression after formation of polyglutamine aggregates and the onset of symptoms. […]\nOne of the common features of Huntington's disease is severe weight loss, proposed to be due to metabolic defects as a part of the systemic pathology of the expanded polyglutamine repeat diseases. We monitored the body weight of mice before and after treatment (FIG. 10A)."}, "R62 transgenic mice": {"test_system": "R62 transgenic mice", "test": "Rotorod, muscle strength, first study", "type": "in vivo", "settings": "R62Tg mice; 10 rpm, maximum 60 seconds; versus R62Tg without Congo red", "protocol": "FIG. 9 is a graph showing the effect of intraperitoneal injection of Congo red on the motor performance in the mouse model of Huntington's disease (R62). Wild type mice or R62 transgenic mice carrying a polyglutamine repeat (R62Tg) were injected with either 0.5 ml of 1 mg/ml Congo red in phosphate buffered saline (PBS) or PBS alone and tested for their muscle strength by measuring their ability to remain on the rotorod at 10 rpm for a maximum period of 60 seconds.\nTransgenic R62 mice that express the human Huntington's disease gene (carrying a 139-157 CAG repeat; Mangiarini et al., Cell 87:493-506, 1996; Carter et al., J. Neurosci. 19:3248-3257, 1999; and Levine et al., J. Neurosci. Res. 58:515-532, 1999) were used to examine the effects of Congo red on cell death or toxicity. […]\nThe latter procedure involved administration of 0.25 μl of the drug (1 mg/ml in 0.4% DMSO) per hour, for a period of at least 28 days. […] Polyglutamine inclusions were readily detected at the beginning of treatment. The effect of Congo red on the polyglutamine-induced toxicity in muscle strength in the animal model R62 was quantified by the use of a rotorod.\nThe mice were trained every day for a week after which time the latency to fall from a rotorod at a speed of 10 rpm was measured for each mouse, with a maximum time of 60 seconds per trial, as described by Carter et al., (J. Neurosci. 19:3248-3257, 1999). […]"}, "R62 mice": {"test_system": "R62 mice", "test": "Dyskinesia of the hindlimbs, gait and stride length (ink test)", "type": "in vivo", "text": "FIG. 10D is a set of scanned images of the effect of Congo red or PBS (vehicle) on motor coordination, as assessed by the “ink” test in HD transgenic mice three weeks after Congo red or vehicle treatment. The “ink” test was used to determine the changes in stride length and the overlap of steps characteristic of movement disorders using red and green food coloring to mark the front and back paws, respectively. Changes in stride length of individual mice from one set of paws (brackets) and the differences in the step overlapping patterns (open arrows) three weeks after vehicle or Congo red treatment were assayed.\nFIG. 10E is a table of the quantification of changes in stride length in HD transgenic mice treated with either Congo red or PBS (vehicle) (#, n=5 in each cohort), assessed as described in FIG. 10D.\nas §1, with “symptoms. R62 transgenic mice and CBAxC57B1/6 F1 wild type littermates were obtained from Jackson Laboratories (Bar Harbor, Me.) at the age of five weeks.” for “symptoms.”\nThe initial abnormal neurological signs of R62 mice include dyskinesia of the hindlimbs when mice were suspended by the tail, and irregular gait. […] The effect of Congo red on motor performance in R62 mice was also assessed by rotarod studies. […]"}, "[3]": {"settings": "ink test three weeks after treatment"}},
  "data": [
    {"compound": "Nc1c(/N=N/c2ccc(-c3ccc(/N=N/c4cc(S(=O)(=O)O)c5ccccc5c4N)cc3)cc2)cc(S(=O)(=O)O)c2ccccc12", "note": "[Congo red, diphenyldiazo-bis-alpha-napthylaminesulfonate]", "values": [
      {"measurement": "general protein degradation", "setting": "[1]", "result": "neither Congo red nor ZVAD had any effect"},
      {"measurement": "body weight, wild-type mice", "setting": "[2]; 9 to 13 weeks, versus vehicle treated wild-type mice", "result": "no change in body weight"},
      {"measurement": "loss of body weight, expanded polyglutamine repeat expressing mice", "setting": "[2]; ICV or IP route of delivery", "result": "significantly ameliorated"},
      {"measurement": "ability to remain on the rotorod", "setting": "R62 transgenic mice", "result": "exhibited a better ability to remain on the rotorod"},
      {"measurement": "dyskinesia of the hindlimbs", "setting": "R62 mice", "result": "significantly inhibited the dyskinesia of the hindlimbs"},
      {"measurement": "gait", "setting": "R62 mice; [3]", "result": "preserved the normal gait"},
      {"measurement": "stride length", "setting": "R62 mice; [3]", "result": "preserved the normal gait (FIG. 10D) and stride length"}
    ]}
  ]
}
